Results reported in patent publication US8415272B2, “Quinoline derivatives and their use as fungicides” (Syngenta Crop Protection LLC, priority 2008, dated 2013).

Key:
Pyrenophora teres = test: Leaf disk assay, Pyrenophora teres (barley net blotch), preventive; format: in vivo; conditions: foliar, 96 h, barley leaf segments, assessed four days after inoculation, read-out: control of fungal infection, Pyrenophora teres
Method: The compounds were tested in a leaf disk assay, with methods described below. The test compounds were dissolved in DMSO and diluted into water to 200 ppm. In the case of the test on Pythium ultimum, they were dissolved in DMSO and diluted into water to 20 ppm. Pyrenophora teres (barley net blotch): Barley leaf segments were placed on agar in a 24-well plate and sprayed with a solution of the test compound. After allowing to dry completely, for between 12 and 24 hours, the leaf disks were inoculated with a spore suspension of the fungus. After appropriate incubation the activity of a compound was assessed four days after inoculation as preventive fungicidal activity.

Phytophthora infestans = test: whole plant or invertebrate; format: in vivo; conditions: in Solanum lycopersicum, foliar, 96 h, read-out: control of fungal infection, Phytophthora infestans
[1] = system: Puccinia recondita f.sp. tritici; test: Leaf disk assay, Puccinia recondita f.sp. tritici (wheat brown rust), preventive; format: in vivo; conditions: foliar, 216 h, wheat leaf segments, assessed nine days after inoculation, read-out: control of fungal infection, Puccinia recondita f.sp. tritici
[2] = system: Erysiphe graminis f.sp. tritici; test: Leaf disk assay, Erysiphe graminis f.sp. tritici (wheat powdery mildew), preventive; format: in vivo; conditions: Blumeria graminis, foliar, 96 h, wheat leaf segments, assessed four days after inoculation, read-out: control of fungal infection, Erysiphe graminis f.sp. tritici
Procedure, shortened: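 Wheat leaf segments on agar were sprayed with compound at 200 ppm (DMSO stock diluted in water). After 12–24 h drying they were inoculated with powdery mildew spores. Preventive activity was scored 4 days after inoculation.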

Plasmopara viticola = test: Leaf disk assay, Plasmopara viticola (downy mildew of grapevine), preventive; format: in vivo; conditions: foliar, 168 h, grapevine leaf disks, assessed seven days after inoculation, read-out: control of fungal infection, Plasmopara viticola
Septoria nodorum = test: Leaf disk assay, Septoria nodorum (wheat glume blotch), preventive; format: in vivo; conditions: Parastagonospora nodorum, foliar, 96 h, wheat leaf segments, assessed four days after inoculation, read-out: control of fungal infection, Septoria nodorum
Septoria tritici = test: Growth inhibition in nutrient broth, Septoria tritici (leaf blotch), photometric; format: cell-based; conditions: Zymoseptoria tritici, PDB broth, 24 C, 72 hrs, read-out: control of fungal infection, Septoria tritici
Pythium ultimum = test: Growth inhibition in potato dextrose broth, Pythium ultimum (damping off), photometric; format: cell-based; conditions: Globisporangium ultimum, 24° C., 48 hours, read-out: control of fungal infection, Pythium ultimum
Procedure, shortened: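 Growth inhibition was read photometrically at 48 hours after incubation at 24° C. Test compound was diluted from DMSO to 20 ppm in water and combined with potato dextrose broth seeded with Pythium ultimum mycelial fragments.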

Fusarium culmorum = test: Growth inhibition in nutrient broth, Fusarium culmorum (root rot), photometric; format: cell-based; conditions: 48 h, read-out: control of fungal infection, Fusarium culmorum
Procedure, shortened: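 Fusarium culmorum conidia in potato dextrose broth were added to compounds in DMSO. Plates were incubated at 24 C for 48 hrs, with growth inhibition read photometrically. […]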

C#Cc1cnc2c(Cl)cc(OC(SC)C(=O)NC(C)(C)C#C)cc2c1 (stereo not drawn) [Example 19]
≥ 60%: pest or weed control at 200 ppm (Pyrenophora teres) | pest or weed control at 200 ppm (Phytophthora infestans) | pest or weed control at 200 ppm [1] | pest or weed control at 200 ppm [2] | pest or weed control at 200 ppm (Plasmopara viticola) | pest or weed control at 200 ppm (Septoria nodorum)

C#Cc1cnc2c(Cl)cc(OC(SC)C(=O)NC(C)(C)C#CCOC)cc2c1 (stereo not drawn) [Example 62]
≥ 60%: pest or weed control at 200 ppm (Pyrenophora teres) | pest or weed control at 200 ppm (Phytophthora infestans) | pest or weed control at 200 ppm [1] | inhibition of growth at 60 ppm (Septoria tritici) | pest or weed control at 200 ppm [2] | pest or weed control at 200 ppm (Plasmopara viticola) | pest or weed control at 200 ppm (Septoria nodorum)

C#Cc1cnc2c(C)cc(OC(SC)C(=O)NC(C)(C)COCOC)cc2c1 (stereo not drawn) [Example 68]
≥ 60%: pest or weed control at 200 ppm (Pyrenophora teres) | pest or weed control at 200 ppm (Phytophthora infestans) | pest or weed control at 200 ppm [1] | inhibition of growth at 60 ppm (Septoria tritici) | pest or weed control at 200 ppm [2] | pest or weed control at 200 ppm (Plasmopara viticola) | pest or weed control at 200 ppm (Septoria nodorum)

C#Cc1cnc2c(Cl)cc(OC(SC)C(=O)NC(C)(C)COC)cc2c1 (stereo not drawn) [Example 74]
≥ 60%: pest or weed control at 200 ppm (Pyrenophora teres) | pest or weed control at 200 ppm (Phytophthora infestans) | pest or weed control at 200 ppm [1] | inhibition of growth at 20 ppm (Pythium ultimum) | inhibition of growth at 60 ppm (Septoria tritici) | pest or weed control at 200 ppm [2] | pest or weed control at 200 ppm (Plasmopara viticola) | pest or weed control at 200 ppm (Septoria nodorum)

C#CCOCC(C)(C)NC(=O)C(Oc1cc(Cl)c2ncc(C#C)cc2c1)SC (stereo not drawn) [Example 76]
≥ 60%: pest or weed control at 200 ppm (Pyrenophora teres) | pest or weed control at 200 ppm (Phytophthora infestans) | pest or weed control at 200 ppm [1] | inhibition of growth at 20 ppm (Pythium ultimum) | inhibition of growth at 60 ppm (Septoria tritici) | pest or weed control at 200 ppm [2] | pest or weed control at 200 ppm (Plasmopara viticola) | pest or weed control at 200 ppm (Septoria nodorum)

C#Cc1cnc2ccc(OC(SC)C(=O)NC(C)(C)C#N)cc2c1 (stereo not drawn) [Example 82]
≥ 60%: pest or weed control at 200 ppm (Pyrenophora teres) | pest or weed control at 200 ppm (Phytophthora infestans) | pest or weed control at 200 ppm [1] | inhibition of growth at 20 ppm (Pythium ultimum) | inhibition of growth at 60 ppm (Septoria tritici) | pest or weed control at 200 ppm [2] | pest or weed control at 200 ppm (Plasmopara viticola) | pest or weed control at 200 ppm (Septoria nodorum)

C#Cc1cnc2c(C)cc(OC(SC)C(=O)NC(C)(C)COCC)cc2c1 (stereo not drawn) [Example 95]
≥ 60%: pest or weed control at 200 ppm (Pyrenophora teres) | pest or weed control at 200 ppm (Phytophthora infestans) | pest or weed control at 200 ppm [1] | inhibition of growth at 20 ppm (Pythium ultimum) | inhibition of growth at 60 ppm (Septoria tritici) | pest or weed control at 200 ppm [2] | pest or weed control at 200 ppm (Plasmopara viticola) | pest or weed control at 200 ppm (Septoria nodorum)

C#Cc1cnc2ccc(OC(SC)C(=O)NC(C)(C)CF)cc2c1 (stereo not drawn) [Example 99]
≥ 60%: pest or weed control at 200 ppm (Pyrenophora teres) | pest or weed control at 200 ppm (Phytophthora infestans) | pest or weed control at 200 ppm [1] | inhibition of growth at 60 ppm (Septoria tritici) | inhibition of growth at 60 ppm (Fusarium culmorum) | pest or weed control at 200 ppm [2] | pest or weed control at 200 ppm (Plasmopara viticola) | pest or weed control at 200 ppm (Septoria nodorum)

C#Cc1cnc2c(C)cc(OC(SC)C(=O)NC(C)(C#N)CF)cc2c1 (stereo not drawn) [Example 102]
≥ 60%: pest or weed control at 200 ppm (Pyrenophora teres) | pest or weed control at 200 ppm [1]

C#Cc1cnc2cc(F)c(OC(SC)C(=O)NC(C)(C)COC)cc2c1 (stereo not drawn) [Example 108]
≥ 60%: pest or weed control at 200 ppm (Pyrenophora teres) | pest or weed control at 200 ppm (Phytophthora infestans) | pest or weed control at 200 ppm [1] | inhibition of growth at 60 ppm (Septoria tritici) | inhibition of growth at 60 ppm (Fusarium culmorum) | pest or weed control at 200 ppm [2] | pest or weed control at 200 ppm (Plasmopara viticola) | pest or weed control at 200 ppm (Septoria nodorum)

C#CCOCC(C)(C)NC(=O)C(Oc1cc2cc(C#C)cnc2cc1F)SC (stereo not drawn) [Example 109]
≥ 60%: pest or weed control at 200 ppm (Pyrenophora teres) | pest or weed control at 200 ppm (Phytophthora infestans) | pest or weed control at 200 ppm [1] | inhibition of growth at 60 ppm (Septoria tritici) | inhibition of growth at 60 ppm (Fusarium culmorum) | pest or weed control at 200 ppm [2] | pest or weed control at 200 ppm (Plasmopara viticola) | pest or weed control at 200 ppm (Septoria nodorum)

C#Cc1cnc2c(C)cc(OC(CC)C(=O)NC(C)(C)C#CC)cc2c1 (stereo not drawn) [Example 113]
≥ 60%: pest or weed control at 200 ppm (Pyrenophora teres) | pest or weed control at 200 ppm (Phytophthora infestans) | pest or weed control at 200 ppm [1] | inhibition of growth at 60 ppm (Septoria tritici) | pest or weed control at 200 ppm [2] | pest or weed control at 200 ppm (Plasmopara viticola) | pest or weed control at 200 ppm (Septoria nodorum)

C#Cc1cnc2c(C)cc(OC(CC)C(=O)NC(C)(C)C#C)cc2c1 (stereo not drawn) [Example 114]
≥ 60%: pest or weed control at 200 ppm (Pyrenophora teres) | pest or weed control at 200 ppm (Phytophthora infestans) | pest or weed control at 200 ppm [1] | inhibition of growth at 60 ppm (Septoria tritici) | inhibition of growth at 60 ppm (Fusarium culmorum) | pest or weed control at 200 ppm [2] | pest or weed control at 200 ppm (Plasmopara viticola) | pest or weed control at 200 ppm (Septoria nodorum)

C#Cc1cnc2c(C)cc(OC(CC)C(=O)NC(C)(C)C)cc2c1 (stereo not drawn) [Example 115]
≥ 60%: pest or weed control at 200 ppm (Pyrenophora teres) | pest or weed control at 200 ppm (Phytophthora infestans) | pest or weed control at 200 ppm [1] | inhibition of growth at 60 ppm (Septoria tritici) | inhibition of growth at 60 ppm (Fusarium culmorum) | pest or weed control at 200 ppm [2] | pest or weed control at 200 ppm (Plasmopara viticola) | pest or weed control at 200 ppm (Septoria nodorum)

C#Cc1cnc2c(Cl)cc(OC(SC)C(=O)NC(C)(C)C#CCC)cc2c1 (stereo not drawn) [Example 122]
≥ 60%: pest or weed control at 200 ppm (Pyrenophora teres) | pest or weed control at 200 ppm (Phytophthora infestans) | pest or weed control at 200 ppm [1] | inhibition of growth at 20 ppm (Pythium ultimum) | inhibition of growth at 60 ppm (Septoria tritici) | pest or weed control at 200 ppm [2] | pest or weed control at 200 ppm (Plasmopara viticola) | pest or weed control at 200 ppm (Septoria nodorum)

C#Cc1cnc2ccc(OC(SC)C(=O)NC(C)(C#C)COC)cc2c1 (stereo not drawn) [Example 129]
≥ 60%: pest or weed control at 200 ppm (Pyrenophora teres) | pest or weed control at 200 ppm (Phytophthora infestans) | pest or weed control at 200 ppm [1] | inhibition of growth at 20 ppm (Pythium ultimum) | inhibition of growth at 60 ppm (Septoria tritici) | pest or weed control at 200 ppm [2] | pest or weed control at 200 ppm (Plasmopara viticola) | pest or weed control at 200 ppm (Septoria nodorum)

C#Cc1cnc2c(C)cc(OC(SC)C(=O)NC(C)(COC)COC)cc2c1 (stereo not drawn) [Example 133]
≥ 60%: pest or weed control at 200 ppm (Pyrenophora teres) | pest or weed control at 200 ppm (Phytophthora infestans) | pest or weed control at 200 ppm [1] | inhibition of growth at 60 ppm (Septoria tritici) | pest or weed control at 200 ppm [2] | pest or weed control at 200 ppm (Plasmopara viticola) | pest or weed control at 200 ppm (Septoria nodorum)

C#Cc1cnc2c(C)cc(OC(SC)C(=O)NC(C)(C#C)COC)cc2c1 (stereo not drawn) [Example 135]
≥ 60%: pest or weed control at 200 ppm (Pyrenophora teres) | pest or weed control at 200 ppm (Phytophthora infestans) | pest or weed control at 200 ppm [1] | inhibition of growth at 20 ppm (Pythium ultimum) | inhibition of growth at 60 ppm (Septoria tritici) | pest or weed control at 200 ppm [2] | pest or weed control at 200 ppm (Plasmopara viticola) | pest or weed control at 200 ppm (Septoria nodorum)

CSC(Oc1ccc2ncc(C#CCF)cc2c1)C(=O)NC(C)(C)C (stereo not drawn) [Example 144]
≥ 60%: pest or weed control at 200 ppm (Pyrenophora teres) | pest or weed control at 200 ppm (Phytophthora infestans) | inhibition of growth at 20 ppm (Pythium ultimum) | inhibition of growth at 60 ppm (Septoria tritici) | inhibition of growth at 60 ppm (Fusarium culmorum) | pest or weed control at 200 ppm [2] | pest or weed control at 200 ppm (Plasmopara viticola) | pest or weed control at 200 ppm (Septoria nodorum)

C#Cc1cnc2ccc(OC(SC)C(=O)NC3(C)CCC3)cc2c1 (stereo not drawn) [Example 202]
≥ 60%: pest or weed control at 200 ppm (Pyrenophora teres) | pest or weed control at 200 ppm (Phytophthora infestans) | pest or weed control at 200 ppm [1] | inhibition of growth at 20 ppm (Pythium ultimum) | inhibition of growth at 60 ppm (Septoria tritici) | pest or weed control at 200 ppm [2] | pest or weed control at 200 ppm (Plasmopara viticola) | pest or weed control at 200 ppm (Septoria nodorum)

C#Cc1cnc2c(Cl)cc(OC(SC)C(=O)NC3(C)CCC3)cc2c1 (stereo not drawn) [Example 203]
≥ 60%: pest or weed control at 200 ppm (Pyrenophora teres) | pest or weed control at 200 ppm (Phytophthora infestans) | pest or weed control at 200 ppm [1] | inhibition of growth at 20 ppm (Pythium ultimum) | inhibition of growth at 60 ppm (Septoria tritici) | pest or weed control at 200 ppm [2] | pest or weed control at 200 ppm (Plasmopara viticola) | pest or weed control at 200 ppm (Septoria nodorum)
